Tested on: Male Wistar rats
Experiment: Arterial blood oxygenation after repeated saline lung lavage in rats
Format: in vivo, rat
Details: TIP 500 μg/animal alone, intratracheally, 1.2 mL in NaCl 0.9%; lung-lavaged rats; up to 150 min after administration
Experimental: Male Wistar rats were prepared as disclosed in Example 5. NaCl 0.9% (open circles), LUSUPULTIDE 12.5 mgPL/kg (filled squares), the circularized peptide […] (SEQ ID NO:3) (=TIP) 500 μg/animal (stars), or LUSUPULTIDE 12.5 mgPL/kg in combination with TIP 500 μg/animal (open squares) was administered intratracheally (administration volume 1.2 mL, solvent NaCl 0.9%). Arterial blood oxygenation (PaO2) was determined every 30 min up to 150 min after drug administration (t=210 min). […] Data are shown as mean ±SEM.*p<0.05, **p<0.01 versus LUSUPULTIDE 12.5 mgPL/kg
Male Wistar rats (230-280 g) were anaesthetized, catheterized to withdraw arterial blood, and ventilated with pure oxygen (=>PaO2˜500-550 mmHg). 30 min later lungs were ravaged 5-9 times with NaCl 0.9% (=>PaO2˜50-100 mmHg). After 60 min NaCl 0.9%, LUSUPULTIDE 12.5 mgPL/kg, TIP (500 μg/animal), or LUSUPULTIDE (12.5 mgPL/kg) in combination with TIP (500 μg/animal) was administered intratracheally (administration volume 1.2 mL, solvent NaCl 0.9%). Arterial blood oxygenation (PaO2) was determined every 30 min up to 150 min after drug administration (t=210 min).

Sequence: CGQRETPEGAEAKPWYC [TIP]
- Influence on arterial blood oxygenation (PaO2): no influence on oxygenation

— patent US8236750B2, “Composition comprising a pulmonary surfactant and a TNF-derived peptide” (Nycomed GmbH, priority 2004, dated 2012)
